Experimental data reported in patent US12077503B2, “Substituted cyclic amides and their use as herbicides” (FMC CORPORATION, priority 2015, dated 2024).
Like-named read-outs stand apart in the source and are kept apart here.

Legend:
Test in all cases: Test A postemergence
Assay type in all cases: in vivo
[1] = test system: corn (Zea mays); conditions: Zea mays, post-emergence, 240 h; for plant injury at 125 g/ha / Corn plant response rating (crop injury, 0 = no effect, 100 = complete kill) at 125 g/ha: 125 g ai/ha; for plant injury at 125 g/ha: postemergence, visual injury rating after approximately 10 d, read-out: Corn plant response rating (0 to 100 scale, 0 no effect, 100 complete control); for Corn plant response rating (crop injury, 0 = no effect, 100 = complete kill) at 125 g/ha: visual injury after approximately 10 d, 0 to 100 scale where 0 is no effect and 100 is complete control
Method in brief: (§1)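 Ratings of 0 (no effect) to 100 (complete control) come from visual comparison with untreated controls roughly 10 d after treatment. Test chemicals, formulated in a non-phytotoxic solvent mixture with surfactant, were applied either as a preemergence directed soil spray on seeded soil or postemergence to one- to two-leaf plants 2 to 10 cm tall.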

[2] = test system: Galium (catchweed bedstraw, Galium aparine); conditions: Galium, post-emergence, 240 h; for pest or weed control at 125 g/ha: 125 g ai/ha
Method in brief: as §1

[3] = test system: pigweed (Amaranthus retroflexus); conditions: Amaranthus retroflexus, post-emergence, 240 h; for pest or weed control at 125 g/ha: 125 g ai/ha
Method in brief: as §1

[4] = test system: Kochia (Kochia scoparia); conditions: Bassia scoparia, post-emergence, 240 h; for pest or weed control at 125 g/ha: 125 g ai/ha
Method in brief: as §1

[5] = test system: blackgrass (Alopecurus myosuroides); conditions: Alopecurus myosuroides, post-emergence, 240 h; for pest or weed control at 125 g/ha: 125 g ai/ha
Method in brief: as §1

[6] = test system: barnyardgrass (Echinochloa crus-galli); conditions: Echinochloa crus-galli, post-emergence, 240 h; for pest or weed control at 125 g/ha: 125 g ai/ha
Method in brief: as §1

[7] = postemergence, visual injury rating after approximately 10 d, read-out: Galium plant response rating (0 to 100 scale, 0 no effect, 100 complete control)
[8] = postemergence, visual injury rating after approximately 10 d, read-out: Pigweed plant response rating (0 to 100 scale, 0 no effect, 100 complete control)
[9] = postemergence, visual injury rating after approximately 10 d, read-out: Kochia plant response rating (0 to 100 scale, 0 no effect, 100 complete control)
[10] = postemergence, visual injury rating after approximately 10 d, read-out: Blackgrass plant response rating (0 to 100 scale, 0 no effect, 100 complete control)
[11] = postemergence, visual injury rating after approximately 10 d, read-out: Barnyardgrass plant response rating (0 to 100 scale, 0 no effect, 100 complete control)
[12] = Postemergence, visual injury after approximately 10 d, 0 to 100 scale where 0 is no effect and 100 is complete control, read-out: Plant response rating, Galium
[13] = Postemergence, visual injury after approximately 10 d, 0 to 100 scale where 0 is no effect and 100 is complete control, read-out: Plant response rating, Pigweed
[14] = Postemergence, visual injury after approximately 10 d, 0 to 100 scale where 0 is no effect and 100 is complete control, read-out: Plant response rating, Kochia
[15] = Postemergence, visual injury after approximately 10 d, 0 to 100 scale where 0 is no effect and 100 is complete control, read-out: Plant response rating, Blackgrass
[16] = Postemergence, visual injury after approximately 10 d, 0 to 100 scale where 0 is no effect and 100 is complete control, read-out: Plant response rating, Barnyardgrass

Row | Compound | plant injury at 125 g/ha [1] [%] | pest or weed control at 125 g/ha [2, 7] [%] | pest or weed control at 125 g/ha [3, 8] [%] | pest or weed control at 125 g/ha [4, 9] [%] | pest or weed control at 125 g/ha [5, 10] [%] | pest or weed control at 125 g/ha [6, 11] [%] | Corn plant response rating (crop injury, 0 = no effect, 100 = complete kill) at 125 g/ha ([1]; Postemergence) [%] | pest or weed control at 125 g/ha [2, 12] [%] | pest or weed control at 125 g/ha [3, 13] [%] | pest or weed control at 125 g/ha [4, 14] [%] | pest or weed control at 125 g/ha [5, 15] [%] | pest or weed control at 125 g/ha [6, 16] [%] | Corn plant response rating (crop injury, 0 = no effect, 100 = complete kill) at 31 g/ha ([1]; Postemergence, 31 g ai/ha, visual injury after approx. 10 d, 0 to 100 scale, 0 no effect, 100 complete control) [%] | pest or weed control at 31 g/ha ([2]; Postemergence, 31 g ai/ha, visual injury after approx. 10 d, 0 to 100 scale, 0 no effect, 100 complete control, read-out: Plant response rating, Galium) [%] | pest or weed control at 31 g/ha ([3]; Postemergence, 31 g ai/ha, visual injury after approx. 10 d, 0 to 100 scale, 0 no effect, 100 complete control, read-out: Plant response rating, Pigweed) [%] | pest or weed control at 31 g/ha ([4]; Postemergence, 31 g ai/ha, visual injury after approx. 10 d, 0 to 100 scale, 0 no effect, 100 complete control, read-out: Plant response rating, Kochia) [%] | pest or weed control at 31 g/ha ([5]; Postemergence, 31 g ai/ha, visual injury after approx. 10 d, 0 to 100 scale, 0 no effect, 100 complete control, read-out: Plant response rating, Blackgrass) [%] | pest or weed control at 31 g/ha ([6]; Postemergence, 31 g ai/ha, visual injury after approx. 10 d, 0 to 100 scale, 0 no effect, 100 complete control, read-out: Plant response rating, Barnyardgrass) [%]
1 | COc1c(F)ccc([C@H]2CN(C)C(=O)[C@@H]2C(=O)Nc2ccccc2C(F)(F)F)c1Cl [Compound 896] | 20 | 40 | 20 | 20 | 40 | 90 | – | – | – | – | – | – | – | – | – | – | – | –
2 | COc1c(F)ccc([C@H]2CN(C)C(=O)[C@@H]2C(=O)Nc2ccccc2S(C)(=O)=O)c1Cl [Compound 897] | 30 | 40 | 0 | 30 | 30 | 90 | – | – | – | – | – | – | – | – | – | – | – | –
3 | CCOc1ccc([C@H]2CN(C)C(=O)[C@@H]2C(=O)Nc2cccc(F)c2F)cc1 [Compound 904] | 0 | 30 | 0 | 30 | 30 | 80 | – | – | – | – | – | – | – | – | – | – | – | –
4 | Cc1cc(C)cc([C@H]2CN(C)C(=O)[C@@H]2C(=O)Nc2cccc(F)c2F)c1 [Compound 911] | 80 | 40 | 0 | 50 | 50 | 90 | – | – | – | – | – | – | – | – | – | – | – | –
5 | CN1CC[C@H](c2cccc(Cl)c2)[C@@H](C(=O)Nc2cccc(Cl)c2F)C1=O [Compound 924] | – | – | – | – | – | – | 0 | 0 | 0 | 0 | 0 | 90 | – | – | – | – | – | –
6 | Cc1cc([C@H]2CN(C)C(=O)[C@@H]2C(=O)Nc2ccccc2S(C)(=O)=O)ccc1Cl [Compound 944] | – | – | – | – | – | – | 30 | 20 | 30 | 0 | 60 | 80 | – | – | – | – | – | –
7 | CC(C)Oc1ccc([C@H]2CN(C)C(=O)[C@@H]2C(=O)Nc2ccc(F)cc2F)cc1 [Compound 954] | – | – | – | – | – | – | 0 | 0 | 0 | 0 | 0 | 60 | – | – | – | – | – | –
8 | CCOc1cccc([C@H]2CN(C)C(=O)[C@@H]2C(=O)Nc2cccc(F)c2F)c1 [Compound 956] | – | – | – | – | – | – | 50 | 40 | 0 | 30 | 40 | 90 | – | – | – | – | – | –
9 | CN1C[C@H](c2csc(C(F)(F)F)c2)[C@@H](C(=O)Nc2cccc(F)c2F)C1=O [Compound 959] | – | – | – | – | – | – | 30 | 40 | 0 | 50 | 30 | 90 | – | – | – | – | – | –
10 | CN1C[C@H](c2cc(C(F)(F)F)cs2)[C@@H](C(=O)Nc2ccccc2F)C1=O [Compound 962] | – | – | – | – | – | – | 0 | 30 | 0 | 20 | 20 | 90 | – | – | – | – | – | –
11 | CC(C)COc1cccc([C@H]2CNC(=O)[C@@H]2C(=O)Nc2cccc(F)c2F)c1 [Compound 965] | – | – | – | – | – | – | 30 | 40 | 0 | 0 | 30 | 80 | – | – | – | – | – | –
12 | CC(C)COc1cccc([C@H]2CNC(=O)[C@@H]2C(=O)Nc2ccc(F)cc2F)c1 [Compound 966] | – | – | – | – | – | – | 0 | 20 | 0 | 0 | 20 | 60 | – | – | – | – | – | –
13 | CN1C[C@H](c2cc(F)cc(F)c2)[C@@H](C(=O)Nc2ccc(C(F)(F)F)cc2)C1=O [Compound 968] | – | – | – | – | – | – | 0 | 0 | 0 | 0 | 0 | 20 | – | – | – | – | – | –
14 | CCOc1cc([C@H]2CN(C)C(=O)[C@@H]2C(=O)Nc2cccc(F)c2F)cc(C(F)(F)F)c1 [Compound 971] | – | – | – | – | – | – | 70 | 40 | 50 | 40 | 50 | 80 | 70 | 20 | 20 | 20 | 40 | 50
15 | CN1C[C@H](c2cc(F)cc(C(F)(F)F)c2)[C@@H](C(=O)Nc2ccc(F)c(F)c2F)C1=O [Compound 993] | – | – | – | – | – | – | 80 | 60 | 30 | 20 | 70 | 90 | – | – | – | – | – | –
16 | CN1CC[C@H](c2ccc(OC(F)(F)F)cc2)[C@@H](C(=O)Nc2ccccc2C(F)(F)F)C1=O [Compound 998] | – | – | – | – | – | – | 0 | 0 | 0 | 0 | 0 | 0 | – | – | – | – | – | –
17 | CN1CC[C@H](c2ccc(OC(F)(F)F)cc2)[C@@H](C(=O)Nc2cccc(F)c2F)C1=O [Compound 999] | – | – | – | – | – | – | 0 | 0 | 0 | 40 | 0 | 100 | – | – | – | – | – | –
